Data reported in PMC10296195, “C-Methylated Spermidine Derivatives: Convenient Syntheses and Antizyme-Related Effects” (Biomolecules, 2023).
Where two headings read alike, the source gives them in different places.

Biological target: T1, mOAZ1 (Mus musculus, UniProt P54369)
T1 construct: gene Oaz1; full-length mouse antizyme 1 (+1 frameshift product); expressed in E. coli Rosetta (DE3) from pET-15b-2c-His-mAZ (XhoI site)
Assay: isothermal titration calorimetry
Type: binding
Description: isothermal titration calorimetry on mOAZ1

T1 sequence (P54369 2-227): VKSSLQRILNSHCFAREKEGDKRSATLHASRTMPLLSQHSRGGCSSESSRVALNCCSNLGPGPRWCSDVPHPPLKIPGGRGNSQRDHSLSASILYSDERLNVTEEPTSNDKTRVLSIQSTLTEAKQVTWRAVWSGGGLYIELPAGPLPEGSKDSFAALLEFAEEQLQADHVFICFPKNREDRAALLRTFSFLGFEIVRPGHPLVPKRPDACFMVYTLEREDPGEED

- Kd (read-out: Ka ^b, M^-1 (converted)): 370 nM
- Kd (read-out: Kd ^c): 370 nM
SMILES: NCCCNCCCCNCCCN [Spm]
